{
  "source": "patent US5700769A",
  "about": "“Enhancement of enzyme reactions” (Novo Nordisk A/S, priority 1992, dated 1997)",
  "molecules": {"B1": {"name": "CiP (Coprinopsis cinerea) (protein)", "chain": "QGPGGGGSVTCPGGQSTSNSQCCVWFDVLDDLQTNFYQGSKCESPVRKILRIVFHDAIGFSPALTAAGQFGGGGADGSIIAHSNIELAFPANGGLTDTVEALRAVGINHGVSFGDLIQFATAVGMSNCPGSPRLEFLTGRSNSSQPSPPSLIPGPGNTVTAILDRMGDAGFSPDEVVDLLAAHSLASQEGLNSAIFRSPLDSTPQVFDTQFYIETLLKGTTQPGPSLGFAEELSPFPGEFRMRSDALLARDSRTACRWQSMTSSNEVMGQRYRAAMAKMSVLGFDRNALTDCSDVIPSAVSNNAAPVIPGGLTVDDIEVSCPSEPFPEIATASGPLPSLAPAP", "notes": "made in house"}},
  "key": {"[1]": {"assay": "Decay of oxidized vanillin and 7-hydroxycoumarin from cyclic voltammograms (Example 7)", "format": "physicochemical", "details": "enhancer 2 mM; comparison of experimental with simulated voltammograms", "protocol": "The half-life of vanillin and 7-hydroxycoumarin was determined from cyclic voltammograms of the enhancers. The cyclic voltammograms were obtained in a three-electrode system consisting of\n(§1) Working electrode Platinum disc\n(§2) Counter electrode Platinum wire\n(§3) Reference electrode Calomel\nThe concentration of the enhancers was 2 mM.\nThe order of the decay reaction of the oxidized enhancers was determined from the dependence of the peak position of the oxidizing peak (Epo) on the scan rate (.nu.). For both enhancers (δEpo /δlog.nu.)=0.019 V in the scan rate range 0.1-1.0 V/s showing that the decay reaction is 2nd order.\nThe rate constant of the decay reaction of the oxidized enhancers was determined from a comparison of the experimental cyclic voltammograms with simulated voltammograms. The parameters needed for the simulation are the reaction order of the decay reaction, the concentration of the enhancer, the scan rate […] the rate constant for the decay reaction as described in Analytical Chemistry, Vol. 60, p. 1159, 1988."}, "[2]": {"details": "ESR", "protocol": "The stability of the ABTS radical formed by oxidation of ABTS with a recombinantly produced Coprinus cinereus peroxidase (rCiP), obtained according to Example 1, was studied by electron spin resonance technique (ESR). The ESR signal was calculated after 20 scans, where the area under curve corresponds to the concentration of the radical. The signal was integrated from 3260 Gaus to 3300 Gaus.\nThe stability of the radical was determined in 0.1M Britton & Robinson buffer at different pH values. A concentration of 2.27 mM H2 O2 and an enzyme concentration 34 PODU/ml was applied.\nThe half-lives in Table 3 measured at different concentrations have for comparison been calculated to a concentration of 250 μM assuming a 2nd order decay."}, "[3]": {"molecular_target": "T1, Coprinus cinereus peroxidase (CiP) (Coprinopsis cinerea, UniProt P28314)", "T1 construct": "made in house", "T1 sequence (P28314 21-363)": "B1 chain", "assay": "Initial bleaching of Direct Blue 1 by CiP with enhancer (Example 1)", "format": "biochemical", "details": "10 μM enhancer, 20 μM H2O2, 30° C., 610 nm", "protocol": "The initial bleaching of Direct Blue 1 (DB1) by CiP using a selection of enhancers according to the invention was compared to the half-life of the oxidized enhancer (electron acceptor) measured under standard conditions.\nConditions for bleaching:\n200 μl 50 mM Britton-Robinson* buffer\npH 8.5 and 10.5, respectively\nAfter 5 seconds the bleaching was followed for at least 1 minute, and the initial bleaching rates (reduction in milli-absorbance units per minute, -ΔmAbs/min, determined from the initial slope of the absorbance curve) were determined."}, "[4]": {"assay": "Half-life of benzidine derivatives by cyclic voltametri (Example 8)", "format": "physicochemical", "details": "CV in DMF/H2O buffer (1/9), 2 mM, two electron transfer", "protocol": "The half-life of the different benzidine derivatives was measured by cyclic voltametri (CV) in DMF/H2 O buffer (1/9) at pH 8.5 and 10.5 as described in. The concentration of the benzidines were 2 mM, and the half-life (t1/2) of the compounds is referring to a two electron transfer."}, "CiP": {"molecular_target": "T2, CiP (Coprinopsis cinerea, UniProt P28314)", "T2 construct": "made in house", "T2 sequence (P28314 21-363)": "B1 chain", "assay": "Apparent kinetic constants for oxidation of enhancer by CiP (Example 9)", "format": "biochemical, Coprinus cinereus", "details": "pH 8.5, 30° C.; for Kcat (app.): turnover number calculated as Vmax/[CiP]o", "protocol": "(§4) The apparent kinetic constants for the oxidation of some of the enhancers of the invention, 10-ethyl-4-phenothiazinecarboxylic acid (EPC) and 10-phenothiazinepropionic acid (PTP), were determined using CiP (4nM for PTP and 3.1 nM for EPC), borate buffer (10 mM) pH 8.5, H2 O2 (50 μM) and varied concentrations of enhancer, 30° C. Formation of oxidized enhancer was monitored at 514 nm.\n(§5) When Kcat (app.) is defined as the turnover number calculated as\n(§6) Vmax /[CiP]o, where [CiP]o is the initial concentration of […]"}, "[5]": {"assay": "Half-life of oxidized enhancer from cyclic voltammogram (Example 1)", "format": "physicochemical", "details": "pH 10.5, enhancer 8 mM", "protocol": "The half-life of the oxidized enhancers were determined from a cyclic voltammogram of the enhancers present at a concentration of 8 mM. The cyclic voltammograms were obtained in a standard three-electrode system consisting of\nas §1, §2, §3\nThe half-life (t1/2) of the oxidized enhancers was calculated from the scan rates (.nu.), peak positions and switching potential in a cyclic voltammogram in which the peak current of the reducing peak had half the value of the peak current of the oxidizing peak. [formula] ΔE is the difference of the peak position of the reducing peak and the switching potential.\nThe switching potential was fixed at a potential 0.2 V higher than the peak position of the oxidizing peak in a reversible voltammogram. A reversible voltammogram is obtained at scan rates at which the difference between the peak positions of the oxidizing and reducing peak approaches 0.059 V."}, "[6]": {"substrate": "CCN1c2ccccc2Sc2c(C(=O)O)cccc21", "assay": "Apparent kinetic constants for oxidation of enhancer by CiP (Example 9)", "format": "biochemical, Coprinus cinereus", "details": "other: CiP 4 nM for PTP, 3.1 nM for EPC, borate buffer 10 mM pH 8.5, 50 μM H2O2, 30° C., 514 nm", "protocol": "as §4, §5, §6"}, "[7]": {"substrate": "O=C(O)CCN1c2ccccc2Sc2ccccc21", "assay": "Apparent kinetic constants for oxidation of enhancer by CiP (Example 9)", "format": "biochemical, Coprinus cinereus", "details": "other: CiP 4 nM for PTP, 3.1 nM for EPC, borate buffer 10 mM pH 8.5, 50 μM H2O2, 30° C., 514 nm", "protocol": "as §4, §5, §6"}},
  "note": "Read-outs that look alike come from different tables or passages of the source.",
  "data": [
    {"molecule": "COc1cc(C=O)ccc1O", "note": "[vanillin]", "values": [
      {"measurement": "rate constant for the decay reaction of the oxidized enhancer", "setting": "[1]", "result": "~10^8 M^-1 s^-1"}
    ]},
    {"molecule": "CCn1c(=NN=c2sc3cc(S(=O)(=O)O)ccc3n2CC)sc2cc(S(=O)(=O)O)ccc21", "note": "[ABTS, 2,2'-azino-bis (3-ethylbenzothiazoline-6-sulfonate)]", "values": [
      {"measurement": "t1/2 of ABTS radical", "setting": "[2]; pH 3, initial concentration 0.45 mM, 0.1M Britton & Robinson buffer", "result": 83, "unit": "h"},
      {"measurement": "t1/2 of ABTS radical", "setting": "[2]; pH 4, initial concentration 0.45 mM", "result": 66, "unit": "h"},
      {"measurement": "t1/2 of ABTS radical", "setting": "[2]; pH 6, initial concentration 0.45 mM", "result": 6.75, "unit": "h"},
      {"measurement": "t1/2 of ABTS radical", "setting": "[2]; pH 7, initial concentration 0.24 mM", "result": 1.4, "unit": "h"},
      {"measurement": "t1/2 of ABTS radical", "setting": "[2]; pH 8.7, initial concentration 0.24 mM", "result": 0.67, "unit": "h"}
    ]},
    {"molecule": "COC(=O)CCN1c2ccccc2Sc2ccccc21", "note": "[methyl-10-phenothiazine-propionate]", "values": [
      {"measurement": "bleaching (initial bleaching of Direct Blue 1)", "setting": "[3]; pH 8.5, 2 nM CiP", "result": "72 -ΔmAbs/min"},
      {"measurement": "bleaching (initial bleaching of Direct Blue 1)", "setting": "[3]; pH 10.5, 1 nM CiP", "result": "99 -ΔmAbs/min"}
    ]},
    {"molecule": "CN1c2ccccc2Sc2ccccc21", "note": "[10-methyl-phenothiazine]", "values": [
      {"measurement": "bleaching (initial bleaching of Direct Blue 1)", "setting": "[3]; pH 8.5, 2 nM CiP", "result": "240 -ΔmAbs/min"},
      {"measurement": "bleaching (initial bleaching of Direct Blue 1)", "setting": "[3]; pH 10.5, 1 nM CiP", "result": "480 -ΔmAbs/min"}
    ]},
    {"molecule": "CC(=O)c1ccc2c(c1)N(C)c1ccccc1S2", "note": "[2-acetyl-10-methyl-phenothiazine]", "values": [
      {"measurement": "bleaching (initial bleaching of Direct Blue 1)", "setting": "[3]; pH 8.5, 2 nM CiP", "result": "27 -ΔmAbs/min"},
      {"measurement": "bleaching (initial bleaching of Direct Blue 1)", "setting": "[3]; pH 10.5, 1 nM CiP", "result": "25 -ΔmAbs/min"}
    ]},
    {"molecule": "Cc1cc(-c2cc(C)c(N)c(C)c2)cc(C)c1N", "note": "[3,3',5,5'-tetramethyl-benzidine, 3,3',5,5'-tetramethylbenzidine]", "values": [
      {"measurement": "t1/2 (half-life of oxidized enhancer)", "setting": "[4]; pH 8.5", "result": 4.5, "unit": "s"},
      {"measurement": "t1/2 (half-life of oxidized enhancer)", "setting": "[4]; pH 10.5", "result": 5, "unit": "s"}
    ]},
    {"molecule": "O=C(O)CCN1c2ccccc2Sc2ccccc21", "note": "[10-phenothiazine propionic acid, 10-phenothiazinepropionic acid]", "values": [
      {"measurement": "bleaching (initial bleaching of Direct Blue 1)", "setting": "[3]; pH 8.5, 2 nM CiP", "result": "486 -ΔmAbs/min"},
      {"measurement": "bleaching (initial bleaching of Direct Blue 1)", "setting": "[3]; pH 10.5, 1 nM CiP", "result": "468 -ΔmAbs/min"},
      {"measurement": "1/kcat (app.)", "setting": "CiP", "result": "~ 1.5 ms"},
      {"measurement": "Kcat (app.)", "setting": "CiP", "result": "671 ± 124", "unit": "s⁻¹"}
    ]},
    {"molecule": "CCN1c2ccccc2Sc2c(C(=O)O)cccc21", "note": "[10-ethyl-4-phenothiazine-carboxylic acid, 10-ethyl-4-phenothiazinecarboxylic acid]", "values": [
      {"measurement": "t1/2 (half-life of the oxidized enhancer)", "setting": "[5]", "result": 2.5, "unit": "s"},
      {"measurement": "bleaching (initial bleaching of Direct Blue 1)", "setting": "[3]; pH 8.5, 2 nM CiP", "result": "816 -ΔmAbs/min"},
      {"measurement": "bleaching (initial bleaching of Direct Blue 1)", "setting": "[3]; pH 10.5, 1 nM CiP", "result": "864 -ΔmAbs/min"},
      {"measurement": "1/kcat (app.)", "setting": "CiP", "result": "~ 1 ms"},
      {"measurement": "Kcat (app.)", "setting": "CiP", "result": "997 ± 64", "unit": "s⁻¹"}
    ]},
    {"molecule": "O=c1ccc2ccc(O)cc2o1", "note": "[7-hydroxycoumarin]", "values": [
      {"measurement": "rate constant for the decay reaction of the oxidized enhancer", "setting": "[1]", "result": "~10^8 M^-1 s^-1"}
    ]},
    {"molecule": "B1", "values": [
      {"measurement": "Km", "setting": "[6]", "result": 31, "unit": "µM"},
      {"measurement": "Km", "setting": "[7]", "result": 53, "unit": "µM"}
    ]}
  ]
}
